Assay results from patent US20090042906A1, “METHODS FOR TREATING CANCERS ASSOCIATED WITH CONSTITUTIVE EGFR SIGNALING” (Massachusetts Institute of Technology, priority 2007, published 2009).

What was measured:
c-Met receptor [1] = molecular target: T1, c-Met receptor (Homo sapiens, UniProt P08581); assay: Immunoblotting of c-Met receptor phosphorylation after kinase inhibitor treatment of U87H cells; assay type: cell-based; conditions: 1 h inhibitor dose escalation after 24-h serum starvation, Western blot
T1 construct: the U87MG cell line which expresses low levels of c-Met; endogenous in cells; host or cells: U87MG-derived U87H cells (human glioblastoma)
T1 sequence (P08581 25-1390): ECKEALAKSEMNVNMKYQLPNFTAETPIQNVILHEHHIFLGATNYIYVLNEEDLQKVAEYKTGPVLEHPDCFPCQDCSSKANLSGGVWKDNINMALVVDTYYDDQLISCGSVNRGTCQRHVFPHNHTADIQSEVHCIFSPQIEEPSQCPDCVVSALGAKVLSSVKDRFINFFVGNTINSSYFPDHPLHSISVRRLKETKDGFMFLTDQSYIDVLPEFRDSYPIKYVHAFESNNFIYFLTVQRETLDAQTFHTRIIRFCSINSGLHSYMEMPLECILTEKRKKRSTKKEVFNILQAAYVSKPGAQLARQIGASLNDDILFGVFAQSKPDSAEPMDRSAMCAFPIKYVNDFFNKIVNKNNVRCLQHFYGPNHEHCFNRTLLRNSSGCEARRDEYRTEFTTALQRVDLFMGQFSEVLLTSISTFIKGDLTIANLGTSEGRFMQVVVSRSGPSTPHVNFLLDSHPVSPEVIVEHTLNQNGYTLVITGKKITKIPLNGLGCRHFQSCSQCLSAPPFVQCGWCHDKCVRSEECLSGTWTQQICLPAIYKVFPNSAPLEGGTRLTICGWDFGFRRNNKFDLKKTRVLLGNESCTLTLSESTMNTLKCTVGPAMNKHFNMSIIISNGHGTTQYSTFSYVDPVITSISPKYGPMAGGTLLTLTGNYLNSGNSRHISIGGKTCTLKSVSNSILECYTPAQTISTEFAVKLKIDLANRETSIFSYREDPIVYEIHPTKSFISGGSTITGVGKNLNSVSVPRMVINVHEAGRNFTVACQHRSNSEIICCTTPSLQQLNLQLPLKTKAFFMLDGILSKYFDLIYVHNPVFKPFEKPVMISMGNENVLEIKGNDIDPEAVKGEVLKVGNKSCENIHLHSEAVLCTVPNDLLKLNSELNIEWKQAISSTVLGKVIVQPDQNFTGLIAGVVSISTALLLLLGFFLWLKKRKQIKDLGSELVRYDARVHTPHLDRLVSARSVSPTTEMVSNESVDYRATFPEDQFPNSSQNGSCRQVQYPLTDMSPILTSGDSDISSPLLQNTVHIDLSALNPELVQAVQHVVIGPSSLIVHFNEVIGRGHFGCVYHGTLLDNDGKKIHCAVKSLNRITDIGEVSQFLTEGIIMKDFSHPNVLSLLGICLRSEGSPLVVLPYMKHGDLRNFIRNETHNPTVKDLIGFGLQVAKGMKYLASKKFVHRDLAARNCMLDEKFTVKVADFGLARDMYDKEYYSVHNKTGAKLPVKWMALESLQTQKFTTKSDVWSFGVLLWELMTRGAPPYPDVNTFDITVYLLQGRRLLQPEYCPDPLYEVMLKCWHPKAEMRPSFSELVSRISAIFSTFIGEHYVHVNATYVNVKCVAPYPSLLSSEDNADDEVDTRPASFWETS
Protocol: For whole-cell extracts, cells were lysed in lysis buffer (20 mmol/L Tris-HCl, 150 mmol/L NaCl, 1 mmol/L EDTA, 1% Triton X-100, 2.5 mmol/L sodium PPi, 1 mmol/ ? glycerophosphate) containing protease and phosphatase inhibitors after the indicated treatment. Protein samples were separated on either 7.5% or 10% SDS-polyacrylamide gels and transferred onto polyvinylidene difluoride membrane. Blots were developed with supersignal West Femto substrate (Pierce) after incubation with primary and secondary antibodies. […] Cells were then lysed as described above for either immunoblotting or mass spectrometric analysis.

U87H cells [2] = assay: Cell viability assay (WST-1); assay type: cell-based, human; conditions: for cell viability, combination with cisplatin: increasing doses of inhibitor with constant 10 μg/ml cisplatin, versus cisplatin only control; for cell viability, single agent: single treatment, 72 h after 24-h serum starvation; for cytotoxicity of combination treatment: 10 μM c-Met inhibitor plus 5 μM AG1478, P<0.001 (SU11274), P<0.0001 (PHA665752); for cell viability, combined dosing with AG1478: c-Met inhibitor dose-response plus constant 5 μM AG1478, 72 h
[3] = tested on: human glioblastoma xenografts expressing EGFRvIII; conditions: co-treatment of cisplatin with AG1478; cited from earlier work
EGFRvIII receptor = molecular target: T2, EGFRvIII receptor (Homo sapiens, UniProt P00533, DELINS30-297G); assay: Mass spectrometric phosphotyrosine analysis of SU11274 treated U87H cells (EGFRvIII sites); assay type: cell-based; conditions: mass spectrometry (data not shown)
T2 construct: expressed in transfected cells; host or cells: U87MG human glioblastoma cells (U87H population), retroviral transduction with pLERNL
Protocol: U87MG cells expressing titrated levels of EGFRvIII were maintained in DMEM medium supplemented with 10% FBS. 1.5 million cells per 10 cm plate were washed with PBS and incubated for 24 hours in serum-free media. Cells were lysed with 8 M urea supplemented with 1 mM sodium orthovanadate (Sigma-Aldrich). For each biological replicate, three 10 cm plates were pooled together. The samples were then further processed and labeled with the iTRAQ reagent as previously described (Zhang et al. (2005) Mol Cell Proteom 4:1240-1250). Peptide immunoprecipitation was performed as previously described (Zhang et al. (2005) Mol Cell Proteom 4:1240-1250), with the following exceptions: 10 μg of protein G Plus-agarose beads (Calbiochem) were incubated with 12 μg of anti-phosphotyrosine antibody (pTyr100 (Cell Signaling Technology) in 200 μl of IP buffer (100 mM Tris, 100 mM NaCl, 1% NP-40, pH 7.4) for 8 hr at 4° C. Immobilized metal affinity chromatography (IMAC) was performed as previously described to remove non-specific non-phosphorylated peptides and eluted phosphopeptides were analyzed by ESI LC-MS/MS on a QqT of (QSTAR XL Pro, Applied Biosystems) operated in IDA mode, as previously described (Zhang et al. (2005) Mol Cell Proteom 4:1240-1250).
MS/MS spectra were extracted and searched against human protein database (NCBI) using ProQuant (Applied Biosystems) as recommended by the manufacturer. […]

c-Met receptor [4] = molecular target: T1, c-Met receptor; assay: Mass spectrometric phosphotyrosine analysis of SU11274 treated U87H cells (c-Met); assay type: cell-based; conditions: mass spectrometry
U87H cells [5] = assay: Apoptosis assay (caspase 3/7 activity, Apo-ONE); assay type: cell-based, human
Protocol: 10,000 cells were seeded per well in a 96 well plate. […] After 24 hours of drug treatment, caspase 3/7 activity was measured using Apo-ONE Homogeneous Caspase-3/7 Assay (Promega), following the manufacturer's recommendations.

Compound	c-Met receptor phosphorylation (Y1230/Y1234/Y1235) (c-Met receptor [1])	cell viability, combination with cisplatin (U87H cells [2])	cell viability, single agent (U87H cells [2]; WST-1)	sensitisation of xenografts to cisplatin [3]	cytotoxicity of combination treatment (U87H cells [2])	cell viability, combined dosing with AG1478 (U87H cells [2]; WST-1)	EGFRvIII receptor tyrosine phosphorylation on multiple sites (EGFRvIII receptor)	specificity for the kinase activity of the c-Met receptor (c-Met receptor [4])	apoptosis (caspase 3/7 cleavage), combination treatment (U87H cells [5]; 10 μM SU11274 plus 5 μM AG1478, 24 h after 24-h serum starvation, P<0.01)	cell death, combined dosing with AG1478 (U87H cells [5]; SU11274 with constant 5 μM AG1478)	cell viability, cisplatin only (U87H cells [2]; 10 μg/ml cisplatin over 72 h after 24-h serum starvation, WST-1)
COc1cc2ncnc(Nc3cccc(Cl)c3)c2cc1OC [AG1478]	concomitant decrease	similar	only decreased cell viability at very high inhibitor doses	sensitized to cisplatin							
Cc1[nH]c(/C=C2\C(=O)Nc3ccc(S(=O)(=O)Cc4c(Cl)cccc4Cl)cc32)c(C)c1C(=O)N1CCC[C@@H]1CN1CCCC1 [PHA665752]					significantly enhanced cytotoxicity	synergistically sensitize					
Cc1[nH]c(/C=C2\C(=O)Nc3ccc(S(=O)(=O)N(C)c4cccc(Cl)c4)cc32)c(C)c1C(=O)N1CCN(C)CC1 [SU11274]	dose dependent decrease	dramatic decrease in cell viability	only decreased cell viability at very high inhibitor doses		significantly enhanced cytotoxicity	synergistic decrease in cell viability	does not affect	exquisitely specific	significantly enhanced apoptosis	increase in cell death	
N.N.[Cl][Pt][Cl] [cisplatin]											resistant
